# Like-named read-outs stand apart in the source and are kept apart here.
# Tests used:
# [1] = target: T1, BTK (Homo sapiens, UniProt Q06187); assay: BTK degradation in TMD-8 cells (HTRF assay); type: cell-based; details: 6 h treatment, IC50 (DC50) of BTK degradation
# T1 construct: High control=Cell group with added DMSO and without compound, indicating microplate readings without BTK degradation; endogenous in cells; host or cells: TMD-8
# Description: (§1) TMD-8 cells were treated with compounds diluted in 0.2% DMSO, dilution was done according to the following protocol: (1) making 500× stock solution in DMSO from 1 mM by 6-fold dilution, total 8 doses were included; (2) making 2× solution in cell culture medium by transferring 0.5 μl 500× stock solution into 125 μl medium; (3) adding 15 μl of 2× solution to cells for incubation of 6 h.
# After 6 h treatment, 10 μl 4× lysis buffer was added to each well; the plate was sealed and incubated for 30 min at room temperature on a plate shaker; Once the cells was lysed, 16 μL of cell lysate were transferred to a PE 384-well HTRF detection plate; 4 μL of pre-mixed HTRF antibodies were added to each well; the plate was covered with a plate sealer, and then spinned at 1000 rpm for 1 min, then incubated overnight at room temperature; the results were read on BMG PheraStar with HTRF protocol (337 nm-665 nm-620 nm).
# The IC50 (DC50) value of a compound can be obtained by fitting the following equation
# (§2) wherein, X and Y are known values, and IC50, Hillslope, Top and Bottom are the parameters obtained by fitting with software. Y is the inhibition percentage (calculated from the equation), X is the concentration of the compound; IC50 is the concentration of the compound when the 50% inhibition is reached. The smaller the IC50 value is, the stronger the inhibitory ability of the compound is. Vice versa, the higher the IC50 value is, the weaker the ability the inhibitory ability of the compound is; Hillslope represents the slope of the fitted curve, generally around 1 *; Bottom represents the minimum value of the curve obtained by data fitting, which is generally 0%±20%; Top represents the maximum value of the curve obtained by data fitting, which is generally 100%±20%. The experimental data were fitted by calculating and analyzing with Dotmatics data analysis software.
# [2] = system: HEK-293 cells; assay: HEK-293 cytotoxicity detection (CellTiter-Glo); type: cell-based; details: HEK-293 cells, 72 h incubation, CellTiter-Glo luminescence, IC50 of cell proliferation inhibition, read-out: HEK293
# Description: as §1, with “HEK-293 cells” for “TMD-8 cells”, “from 5” for “from 1”, “by 4-fold” for “by 6-fold”, “0.5 ul” for “0.5 μl”, “adding 50” for “adding 15”, “of 72” for “of 6”
# 25 μl of the CellTiter-Glo®Reagent [(Promega) -Cat No. G7572] was added to each well in the 96-well plate. The contents were mixed for 2 minutes on an orbital shaker to induce cell lysis. The plate was then allowed to incubate at room temperature for 10 minutes to stabilize luminescent signal. Luminescence was recorded on BMG PheraStar with luminescence protocol.
# The IC50 value of a compound can be obtained by fitting the following equation
# as §2, with “Wherein,” for “wherein,”
# T1 sequence (Q06187 whole entry): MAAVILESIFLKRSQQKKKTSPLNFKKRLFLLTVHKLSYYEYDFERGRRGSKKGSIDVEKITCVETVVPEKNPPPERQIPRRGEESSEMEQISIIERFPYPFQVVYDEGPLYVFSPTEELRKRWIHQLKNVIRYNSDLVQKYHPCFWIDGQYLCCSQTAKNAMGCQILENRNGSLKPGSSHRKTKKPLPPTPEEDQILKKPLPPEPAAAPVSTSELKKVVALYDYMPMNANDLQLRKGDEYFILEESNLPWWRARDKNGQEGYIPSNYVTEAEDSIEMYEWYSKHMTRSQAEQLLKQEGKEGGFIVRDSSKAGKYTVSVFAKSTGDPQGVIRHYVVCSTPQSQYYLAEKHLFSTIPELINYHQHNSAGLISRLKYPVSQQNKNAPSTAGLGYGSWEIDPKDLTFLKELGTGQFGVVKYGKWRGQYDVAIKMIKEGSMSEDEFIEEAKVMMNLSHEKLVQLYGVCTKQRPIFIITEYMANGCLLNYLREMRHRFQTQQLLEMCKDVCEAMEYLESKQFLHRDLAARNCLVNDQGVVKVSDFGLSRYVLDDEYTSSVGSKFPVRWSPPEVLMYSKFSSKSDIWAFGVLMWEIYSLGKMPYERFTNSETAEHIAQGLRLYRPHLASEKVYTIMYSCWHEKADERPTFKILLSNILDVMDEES
DC50 [1] [nM],Compound,IC50 [2] [nM],IC50 ([2]; Homo sapiens) [nM]
9.03,"5-(tert-butyl)-N—((R)-1-(4-(7-(4-(3-(4-((R)-2,6-dioxopiperidin-3-yl)phenyl)cyclobutyl)piperazin-1-yl)-9H-pyrimido[4,5-b]indol-4-yl)-3-fluoro-2-methylphenyl)ethyl)-1,2,4-oxadiazole-3-carboxamide [Example 32]",> 10000,–
1.52,"Cc1cc(-c2ncnc3[nH]c4cc(N5CCC6(CC5)CCN(C5CC(c7ccc(C8CCC(=O)NC8=O)cc7)C5)C6)ccc4c23)ccc1[C@@H](C)NC(=O)c1nc(C(C)(C)C)no1 (stereo in doubt) [Example 101, 3-(tert-butyl)-N—((R)-1-(4-(7-(2-(3-(4-((R)-2,6-dioxopiperidin-3-yl)phenyl)cyclobutyl)-2,8-diazaspiro[4.5]decan-8-yl)-9H-pyrimido[4,5-b]indol-4-yl)-2-methylphenyl)ethyl)-1,2,4-oxadiazole-5-carboxamide]",–,956
4.94,"Cc1cc(-c2ncnc3[nH]c4ccc(N5CCN(CC6CCN(c7ccc(N8CCC(=O)NC8=O)cc7)CC6)CC5)cc4c23)ccc1CNC(=O)c1nc(C(C)(C)C)no1 [Example 1, 3-(tert-butyl)-N-(4-(6-(4-((1-(4-(2,4-dioxotetrahydropyrimidin-1(2H)-yl)phenyl)piperidin-4-yl)methyl)piperazin-1-yl)-9H-pyrimido[4,5-b]indol-4-yl)-2-methylbenzyl)-1,2,4-oxadiazole-5-carboxamide]",–,> 10000
> 2000,"Cc1cc(-c2ncnc3[nH]c4ccc(C5CCN(CC6CCN(c7ccc(N8CCC(=O)NC8=O)cc7)CC6)CC5)cc4c23)ccc1CNC(=O)c1nc(C(C)(C)C)no1 [Example 2, 3-(tert-butyl)-N-(4-(6-(1-((1-(4-(2,4-dioxotetrahydropyrimidin-1(2H)-yl)phenyl)piperidin-4-yl)methyl)piperidin-4-yl)-9H-pyrimido[4,5-b]indol-4-yl)-2-methylbenzyl)-1,2,4-oxadiazole-5-carboxamide]",–,3950
2.15,"Cc1cc(-c2ncnc3[nH]c4cc(C5CCN(CCCOc6ccc(NC7CCC(=O)NC7=O)cc6)CC5)ccc4c23)ccc1CNC(=O)c1nc(C(C)(C)C)no1 (stereo not shown) [Example 3, 3-(tert-butyl)-N-(4-(7-(1-(3-(4-((2,6-dioxopiperidin-3-yl)amino)phenoxy)propyl)piperidin-4-yl)-9H-pyrimido[4,5-b]indol-4-yl)-2-methylbenzyl)-1,2,4-oxadiazole-5-carboxamide]",–,> 10000
0.294,"Cc1cc(-c2ncnc3[nH]c4cc(C5CCN(CC6CCN(c7ccc(N8CCC(=O)NC8=O)cc7)CC6)CC5)ccc4c23)ccc1CNC(=O)c1nc(C(C)(C)C)no1 [Example 4, 3-(tert-butyl)-N-(4-(7-(1-((1-(4-(2,4-dioxotetrahydropyrimidin-1(2H)-yl)phenyl)piperidin-4-yl)methyl)piperidin-4-yl)-9H-pyrimido[4,5-b]indol-4-yl)-2-methylbenzyl)-1,2,4-oxadiazole-5-carboxamide]",–,3660
0.731,"Cc1cc(-c2ncnc3[nH]c4cc(C5CCN(CC6CCN(c7ccc(N8CCC(=O)NC8=O)cc7)CC6)CC5)ccc4c23)ccc1[C@@H](C)NC(=O)c1nc(C(C)(C)C)no1 [Example 5, (R)-3-(tert-butyl)-N-(1-(4-(7-(1-((1-(4-(2,4-dioxotetrahydropyrimidin-1(2H)-yl)phenyl)piperidin-4-yl)methyl)piperidin-4-yl)-9H-pyrimido[4,5-b]indol-4-yl)-2-methylphenyl)ethyl)-1,2,4-oxadiazole-5-carboxamide]",–,3250
0.394,"Cc1cc(-c2ncnc3[nH]c4cc(N5CCN(CC6CCN(c7ccc(N8CCC(=O)NC8=O)cc7)CC6)CC5)ccc4c23)ccc1[C@@H](C)NC(=O)c1nc(C(C)(C)C)no1 [Example 6, (R)-3-(tert-butyl)-N-(1-(4-(7-(4-((1-(4-(2,4-dioxotetrahydropyrimidin-1(2H)-yl)phenyl)piperidin-4-yl)methyl)piperazin-1-yl)-9H-pyrimido[4,5-b]indol-4-yl)-2-methylphenyl)ethyl)-1,2,4-oxadiazole-5-carboxamide]",–,> 10000
1.27,"Cc1cc(-c2ncnc3[nH]c4cc(N5CCN(CC6CCN(c7ccc(N8CCC(=O)NC8=O)cn7)CC6)CC5)ccc4c23)ccc1[C@@H](C)NC(=O)c1nc(C(C)(C)C)no1 [Example 7, (R)-3-(tert-butyl)-N-(1-(4-(7-(4-((1-(5-(2,4-dioxotetrahydropyrimidin-1(2H)-yl)pyridin-2-yl)piperidin-4-yl)methyl)piperazin-1-yl)-9H-pyrimido[4,5-b]indol-4-yl)-2-methylphenyl)ethyl)-1,2,4-oxadiazole-5-carboxamide]",–,> 10000
0.481,"Cc1cc(-c2ncnc3[nH]c4cc(N5CCN(CC6CCN(c7ccc(N8CCC(=O)NC8=O)c(C)c7)CC6)CC5)ccc4c23)ccc1[C@@H](C)NC(=O)c1nc(C(C)(C)C)no1 [Example 8, (R)-3-(tert-butyl)-N-(1-(4-(7-(4-((1-(4-(2,4-dioxotetrahydropyrimidin-1(2H)-yl)-3-methylphenyl)piperidin-4-yl)methyl)piperazin-1-yl)-9H-pyrimido[4,5-b]indol-4-yl)-2-methylphenyl)ethyl)-1,2,4-oxadiazole-5-carboxamide]",–,> 10000
1.51,"Cc1cc(-c2ncnc3[nH]c4cc(C5=CCN(CC6CCN(c7ccc(N8CCC(=O)NC8=O)cc7)CC6)C5)ccc4c23)ccc1[C@@H](C)NC(=O)c1nc(C(C)(C)C)no1 [Example 10, (R)-3-(tert-butyl)-N-(1-(4-(7-(1-((1-(4-(2,4-dioxotetrahydropyrimidin-1(2H)-yl)phenyl)piperidin-4-yl)methyl)-2,5-dihydro-1H-pyrrol-3-yl)-9H-pyrimido[4,5-b]indol-4-yl)-2-methylphenyl)ethyl)-1,2,4-oxadiazole-5-carboxamide]",–,> 10000
9.78,"Cc1cc(-c2ncnc3[nH]c4cc(-c5ccn(CC6CCN(c7ccc(N8CCC(=O)NC8=O)cc7)CC6)c5)ccc4c23)ccc1[C@@H](C)NC(=O)c1nc(C(C)(C)C)no1 [Example 11, (R)-3-(tert-butyl)-N-(1-(4-(7-(1-((1-(4-(2,4-dioxotetrahydropyrimidin-1(2H)-yl)phenyl)piperidin-4-yl)methyl)-1H-pyrrol-3-yl)-9H-pyrimido[4,5-b]indol-4-yl)-2-methylphenyl)ethyl)-1,2,4-oxadiazole-5-carboxamide]",–,> 10000
0.613,"Cc1cc(-c2ncnc3[nH]c4cc(C5CCN(CC6CCN(c7ccc(N8CCC(=O)NC8=O)cc7)CC6)C5)ccc4c23)ccc1[C@@H](C)NC(=O)c1nc(C(C)(C)C)no1 (stereo partly drawn) [Example 12, 3-(tert-butyl)-N-((1R)-1-(4-(7-(1-((1-(4-(2,4-dioxotetrahydropyrimidin-1(2H)-yl)phenyl)piperidin-4-yl)methyl)pyrrolidin-3-yl)-9H-pyrimido[4,5-b]indol-4-yl)-2-methylphenyl)ethyl)-1,2,4-oxadiazole-5-carboxamide]",–,3640
1.05,"Cc1cc(-c2ncnc3[nH]c4cc([C@@H]5CCN(CC6CCN(c7ccc(N8CCC(=O)NC8=O)cc7)CC6)C5)ccc4c23)ccc1[C@@H](C)NC(=O)c1nc(C(C)(C)C)no1 [Example 13, 3-(tert-butyl)-N—((R)-1-(4-(7-((S)-1-((1-(4-(2,4-dioxotetrahydropyrimidin-1(2H)-yl)phenyl)piperidin-4-yl)methyl)pyrrolidin-3-yl)-9H-pyrimido[4,5-b]indol-4-yl)-2-methylphenyl)ethyl)-1,2,4-oxadiazole-5-carboxamide]",–,3260
